Reference: patent US20220062258A1, “Heterocyclic derivatives” (Merck Patent GmbH, priority 2019, published 2022)

Columns and labels:
MetAP-2 [1] = target: T1, MetAP-2 (Homo sapiens, UniProt P50579); test: Degradation of MetAP-2 in HCT116 cells (Western blot, MetAp2/GAPDH signal); format: cell-based; set-up: endogenous in cells; host or cells: HCT116; conditions: 0.1 μM, 24 hrs, HTC116 cells; <1 means degradation
Protocol: See scans below. […] The initial MetAP-2 degradation results were obtained after 24 h incubation of the compounds in three different concentrations (0.1; 1; 10 μM), cell lysis, SDS-PAGE separation, blotting and antibody aided detection.
Comparison of MetAP2 protein levels in HTC116 cells after compound treatments at different concentrations and time points. As control, DMSO was used and its values set as “1”. MetAp2 values <1 means degradation.
2. Exemplary Testing of the Compound
HCT116 cells were sown in 6-well plates. Pipette 1 mL fresh medium to every well and incubate for at least 1 h (37° C., 5% CO2, 95% rH).
Harvest and count cells in Vi-Cell. Equinr. 70198475 Adjust cell concentration to 0.35e^6 cells/mL and add 1 mL of cell suspension (total 0,35e^6 cells/well).
Incubate cells for 24 hours (37° C., 5% CO2, 95% rH)
HCT116: 24 h: ˜50% confluent before treatment
Compounds will be thawed the first time, stock: 10 mM; final concentration: 10 μM & 1 μM & 0.1 μM
Treatment with DMSO based solution with Digital Dispenser: HCT116 platte 2A1.jpg_meta.xml • create new dispensing protocol for compound • apply name of test compound and its stock concentration (in mM) for testing • 3×1:10 dilution series • final 0.3% DMSO, DMSO normalization for every well • shaking after compound/DMSO addition
Incubate cells for further 24 hours (37° C., 5% C02, 95% rH)
HCT116: 70-80% confluent before lysis • after incubation cells were lysed with RIPA lysis buffer including Halt™
all steps performed on ice or at 4° C. • aspirate supernatant from cells • wash cells twice with 2.0 mL ice cold PBS buffer • aspirate supernatant from cells after each washing step • lyse cells with 100 μL Ripa lysis buffer per well • scrape cells with cell scraper and transfer lysates to Eppendorf Cups • incubate for 15 min on ice • centrifuge […] at 13000×g and 4° C. • transfer supernatants to fresh Eppendorf cups • removal of 20 μL lysate for BCA assay • aliquot and freeze at −20° C.
Determination of protein concentration of lysates with BCA Protein Assay Kit. BSA supplied with the kit is 2 mg/mL.
Dilute the standard (Stock BSA concentration=2 mg/mL) in a 96 well plate: Samples were run 1:4. Dilute in lysing buffer, lysing buffer alone was run to determine the background from detergents in the assay.
BCA reagent: Dilute Reagent A and Reagent B in a 1:50 ratio. To 9.8 mL A add 200 μL B.
Assay Procedure: Pipette 5 μL/well of standard or samples to 96 wells (see plate layout). Samples were run in duplicate. Blanks=5 μL/well PBS or 5 μL/well lysing buffer. Add 100 μL/well of the prepared BCA reagent. Tap plate to mix or shake for 1-2 min on the Eppendorf mixer. Incubate at 37° C. for 30 min.
Read the OD at 562 nm. Plate was read on EnVision 2104 Multilabel Reader (Perkin Elmer, Equipment Number 70160330) last verification of instrument 17.08.2017 (once a year) (A25/531). AEH181012_BCA.csv
In EXCEL the duplicates were averaged and the average background PBS was subtracted for the standard curve.
A trend line was created, the intercept (b) was set at 0. The R^2 should be >0.950 for acceptable results. The lysate buffer blank was subtracted from the test values and the averaged, background-corrected O.D. values were used with the equation to calculate mg/ml and then were corrected for the dilution factor for the final mg/mL value. Only results from OD values within the range of the standard curve are acceptable. Values outside of the standard curve range are ignored. BCA AEH00350 Berechnung.xlsx
6. Sample Calculation and Preparation • thaw lysates of AEH00350 on ice • calculate sample volume for Western Blot loading 10 μg total protein/13 μL per slot: • dilute samples with lysis buffer and 10× reducing agent & 4×LDS buffer to 10 μg. • heat them at 70° C. for 10 min and 1000 rmp
Target sequence in this assay (P50579 whole entry): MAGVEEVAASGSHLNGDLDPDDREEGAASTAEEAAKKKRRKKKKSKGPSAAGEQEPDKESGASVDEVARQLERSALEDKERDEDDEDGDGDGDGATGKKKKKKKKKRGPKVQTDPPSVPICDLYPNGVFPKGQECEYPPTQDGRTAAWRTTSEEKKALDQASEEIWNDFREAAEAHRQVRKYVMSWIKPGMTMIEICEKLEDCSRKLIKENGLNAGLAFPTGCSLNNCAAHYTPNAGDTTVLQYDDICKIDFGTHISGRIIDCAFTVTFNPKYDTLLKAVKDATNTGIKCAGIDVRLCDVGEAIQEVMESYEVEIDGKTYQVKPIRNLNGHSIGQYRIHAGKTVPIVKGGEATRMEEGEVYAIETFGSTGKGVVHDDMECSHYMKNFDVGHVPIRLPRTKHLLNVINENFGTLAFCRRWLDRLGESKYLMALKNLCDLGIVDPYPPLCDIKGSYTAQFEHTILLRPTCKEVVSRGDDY
7. […]

MetAP-2 [2] = target: T1, MetAP-2; test: as above; format: cell-based; set-up: endogenous in cells; host or cells: HCT116; conditions: 0.1 μM, 6 hrs, HTC116 cells; <1 means degradation
Target sequence in this assay (P50579 whole entry): as above

[3] = tested on: HUVEC primary endothelial cells; test: HUVEC proliferation assay (CyQUANT Direct); format: cell-based; conditions: Homo sapiens, 72 h, 3 days incubation
Protocol: HUVEC Proliferation Assay
Proliferation of HUVEC primary endothelial cells was used as cell-based mechanistical assay.^25 Applying the CyQUANT@ Direct Cell Proliferation Assay (Invitrogen C35011) which is based on a cell-permeant fluorescent DNA-binding dye, DNA content is used as a direct measure for cell number. Pooled HUVEC cells (Promocell C-12203) are cultivated in the medium supplied by Promocell (Cat No C-22020) for maximum 4 passages. For the assay 500 cells/well are seeded into black 384-well culture plates with clear bottom in 70 μl culture medium and incubated for 6 hours at 37° C., 5% CO2. 10 μl prediluted test compounds are added and cells incubated for 3 days at 37° C., 5% CO2 before measurement of DNA content. CyQUANT detection reagent is prepared according to the manufacturers protocol, 20 μl/well added and incubated at 37° C., 5% CO2 for at least 1 h before measurement of fluorescence at Envision multimode reader (Perkin-Elmer, Waltham) with excitation 480 nm and emission 535 nm (bottom read mode). The assay is performed as dose response with 10 compound dilutions. Inhibitory values (IC50) were determined using the program ASSAY ANALYZER® from GeneData (Basel, Switzerland).

MetAP-2 [4] = target: T1, MetAP-2; test: Biochemical activity testing of MetAP-2 (enzyme-coupled assay, Met-Ala-Ser substrate); set-up: N-terminal His tag human rec MetAP2 (prepared in house, AA 2-478, final concentration (fc) 123 nM); His tag (N); TEV cleavage site (N); made in house
Protocol: Biochemical Activity Testing of MetAP-2
MetAP-2 activity was determined by an enzyme-coupled assay using the tripeptide Met-Ala-Ser (MAS) as substrate and recombinant human MetAP-2 (His-Tev-MetAP-2, prepared at Merck). The released methionine is converted by L-amino acid oxidase (AAO) to oxidized Methionine and hydrogen peroxide is released. In a second step horse radish peroxidase catalyzes the oxidation of the leuko dye dianisidine to oxidized dianisidine using hydrogen peroxide as co-substrate. The produced dianisidine ox was detected photometrically as increase in absorbance at 450 nm. Met-AP2 activity was determined in a kinetic measurement mode. The release of one molecule methionine corresponds to the production of one molecule dianisidine ox. The MetAP2 enzymatic activity is directly corresponding to the increase in absorbance per time.
In detail, the assay was performed in 384 well microtiter plate (Greiner 78110 MTP, transparent) in a total reaction volume of 50 μl at 22° C. 0.35 μg of N-terminal His tag human rec MetAP2 (prepared in house, AA 2-478, final concentration (fc) 123 nM), 1 unit horse radish Peroxidase (Roche, Mannheim), 0.02 unit L-amino acid oxidase (Merck, Darmstadt), 0.6 mM dianisidine (Merck, Darmstadt, dissolved in 50 mM HCl, 10% DMSO) were incubated in the absence or presence of the test compound (10 dilution concentrations) in 100 mM Hepes, 50 mM NaCl, 50 μM MnCl2 at pH 7.0 for 15 min at 22° C. The reaction was started by the addition of 500 μM (fc) MAS peptide (Merck, Darmstadt). After mixing the first absorbance measurement was performed on an Envision multimode reader (Perkin-Elmer, Waltham) at wavelength of 450 nm. The reaction was incubated at 22° C. for additional 45 min and the second absorbance measurement was performed. The increase of absorbance per time was determined. The control value used was the inhibitor-free reaction with 0.5% DMSO (fc). As pharmacological inhibitor control Fumagillin (Merck, Darmstadt) in a final concentration of 5 μM was used. The inhibitory values (IC50) were determined using the program ASSAY ANALYZER® from GeneData (Basel, Switzerland).
Target sequence in this assay (P50579 2-478): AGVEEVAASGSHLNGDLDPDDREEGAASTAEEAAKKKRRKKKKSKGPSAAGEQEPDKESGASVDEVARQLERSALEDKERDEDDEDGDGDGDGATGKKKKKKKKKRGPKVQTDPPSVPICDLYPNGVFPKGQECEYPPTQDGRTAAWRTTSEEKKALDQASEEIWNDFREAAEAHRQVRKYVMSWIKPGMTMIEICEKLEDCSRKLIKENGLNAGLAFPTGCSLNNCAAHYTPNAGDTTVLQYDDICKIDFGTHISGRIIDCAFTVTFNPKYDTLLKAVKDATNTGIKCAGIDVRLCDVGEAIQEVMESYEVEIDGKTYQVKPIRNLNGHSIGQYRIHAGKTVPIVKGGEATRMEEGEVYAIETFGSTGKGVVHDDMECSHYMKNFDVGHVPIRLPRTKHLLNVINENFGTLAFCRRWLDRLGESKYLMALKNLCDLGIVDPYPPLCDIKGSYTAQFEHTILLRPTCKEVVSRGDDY

O=C1CCC(N2C(=O)c3cccc(NCCOCCOCCOCCOCCOCCNC(=O)c4cc5cc(N6CC(O)C(O)(C(=O)NCc7cc(F)cc(F)c7)C6=O)ccc5[nH]4)c3C2=O)C(=O)N1 (stereo not drawn) [Compound A21, 5-[3-[(3,5-difluorophenyl)methylcarbamoyl]-3,4-dihydroxy-2-oxo-pyrrolidin-1-yl]-N-[2-[2-[2-[2-[2-[2-[[2-(2,6-dioxo-3-piperidyl)-1,3-dioxo-isoindolin-4-yl]amino]ethoxy]ethoxy]ethoxy]ethoxy]ethoxy]ethyl]-1H-indole-2-carboxamide]
Signal MetAp2/GAPDH normalized to untreated (DMSO) (MetAP-2 [1]): 1.2 | Signal MetAp2/GAPDH normalized to untreated (DMSO) (MetAP-2 [2]): 1.3

Cc1ncsc1-c1ccc(CNC(=O)[C@@H]2C[C@@H](O)CN2C(=O)[C@@H](NC(=O)COCCOCCOCCOCCOCCNC(=O)c2cc3cc(N4CCC(O)(C(=O)NCc5cc(F)cc(F)c5)C4=O)ccc3[nH]2)C(C)(C)C)cc1 (stereo partly drawn) [Compound A8, 5-[3-[(3,5-difluorophenyl)methylcarbamoyl]-3-hydroxy-2-oxo-pyrrolidin-1-yl]-N-[2-[2-[2-[2-[2-[2-[[(1S)-1-[(2S,4R)-4-hydroxy-2-[[4-(4-methylthiazol-5-yl)phenyl]-methylcarbamoyl]pyrrolidine-1-carbonyl]-2,2-dimethyl-propyl]amino]-2-oxoethoxy]ethoxy]ethoxy]ethoxy]ethoxy]ethyl]-1H-indole-2-carboxamide]
IC50 [3]: 30000 nM | IC50 (MetAP-2 [4]): 330 nM

O=C1CCC(N2C(=O)c3cccc(NCCOCCOCCNC(=O)c4cc5cc(N6CCC(O)(C(=O)NCc7cc(F)cc(F)c7)C6=O)ccc5[nH]4)c3C2=O)C(=O)N1 (stereo not drawn) [Compound A5, 5-[3-[(3,5-difluorophenyl)methylcarbamoyl]-3-hydroxy-2-oxo-pyrrolidin-1-yl]-N-[2-[2-[2-[[2-(2,6-dioxo-3-piperidyl)-1,3-dioxo-isoindolin-4-yl]amino]ethoxy]-ethoxy]ethyl]-1-H-indole-2-carboxamide]
IC50 [3]: 5800 nM | IC50 (MetAP-2 [4]): 330 nM

O=C1CCC(N2C(=O)c3ccc(NCCCCCNC(=O)c4cc5cc(N6CCC(O)(C(=O)NCc7cc(F)cc(F)c7)C6=O)ccc5[nH]4)cc3C2=O)C(=O)N1 (stereo not drawn) [Compound A4, 5-[3-[(3,5-difluorophenyl)methylcarbamoyl]-3-hydroxy-2-oxo-pyrrolidin-1-yl]-N-[5-[[2-(2,6-dioxo-3-piperidyl)-1,3-dioxo-isoindolin-5-yl]amino]pentyl]-1H-indole-2-carboxamide]
IC50 [3]: 1600 nM | IC50 (MetAP-2 [4]): 480 nM

Cc1ncsc1-c1ccc(CNC(=O)[C@@H]2C[C@@H](O)CN2C(=O)[C@@H](NC(=O)COCCOCCOCCOCCNC(=O)c2cc3cc(N4CCC(O)(C(=O)NCc5cc(F)cc(F)c5)C4=O)ccc3[nH]2)C(C)(C)C)cc1 (stereo partly drawn) [Compound A7]
IC50 [3]: 7300 nM | IC50 (MetAP-2 [4]): 320 nM

Cc1ncsc1-c1ccc(CNC(=O)[C@@H]2C[C@@H](O)CN2C(=O)[C@@H](NC(=O)COCCOCCNC(=O)c2cc3cc(N4CCC(O)(C(=O)NCc5cc(F)cc(F)c5)C4=O)ccc3[nH]2)C(C)(C)C)cc1 (stereo partly drawn) [Compound A6, 5-[3-[(3,5-difluorophenyl)methylcarbamoyl]-3-hydroxy-2-oxo-pyrrolidin-1-yl]-N-[2-[2-[2-[[(1S)-1-[(2S,4R)-4-hydroxy-2-[[4-(4-methylthiazol-5-yl)phenyl]methylcarbamoyl]pyrrolidine-1-carbonyl]-2,2-dimethyl-propyl]amino]-2-oxoethoxy]ethoxy]ethyl]-1H-indole-2-carboxamide]
IC50 [3]: 30000 nM | IC50 (MetAP-2 [4]): 370 nM

Cc1ncsc1-c1ccc(CNC(=O)[C@@H]2C[C@@H](O)CN2C(=O)[C@@H](NC(=O)CCCCCNC(=O)c2cc3cc(N4CC[C@@](O)(C(=O)NCc5cc(F)cc(F)c5)C4=O)ccc3[nH]2)C(C)(C)C)cc1 (mixture of isomers) [Compound A3, (3RS)—N-[(3,5-difluorophenyl)methyl]-3-hydroxy-1-{2-[(5-{[(2S)-1-[(2S,4R)-4-hydroxy-2-({[4-(4-methyl-1,3-thiazol-5-yl)phenyl]methyl}carbamoyl)pyrrolidin-1-yl]-3,3-dimethyl-1-oxobutan-2-yl]carbamoyl}pentyl)carbamoyl]-1H-indol-5-yl}-2-oxopyrrolidine-3-carboxamide]
IC50 [3]: 30000 nM | IC50 (MetAP-2 [4]): 550 nM

O=C1CCC(N2C(=O)c3ccc(C#CCOCCOCCOCCOCCNC(=O)c4cc5cc(N6CC[C@](O)(C(=O)NCc7cc(F)cc(F)c7)C6=O)ccc5[nH]4)cc3C2=O)C(=O)N1 (stereo partly drawn) [Compound A43, 5-[(3S)-3-{[(3,5-difluorophenyl)methyl]carbamoyl}-3-hydroxy-2-oxopyrrolidin-1-yl]-N-{15-[2-(2,6-dioxopiperidin-3-yl)-1,3-dioxo-2,3-dihydro-1H-isoindol-5-yl]-3,6,9,12-tetraoxapentadec-14-yn-1-yl}-1H-indole-2-carboxamide]
IC50 [3]: 7100 nM
